Experimental data reported in patent publication US20090253709A1 (NATIONAL DEFENSE MEDICAL CENTER, priority 2008, published 2009).

system: A498; test: In vitro cytotoxicity, Development Therapeutics Program; format: cell-based; settings: A498, renal cancer; 1.0×10^−5 M
Text: (§1) From the in vitro experiments of the Development Therapeutics Program of the Cancer Research Institute, the United States, it was known that the synthetic heterocyclic anthraquinone derivatives of the present invention have different inhibition levels to the different cancer cell lines under the concentration of 1.0×10^−5 M. Please refer to Table 2, which is the result of in vitro cytotoxicity of 2,7-disubstituted anthraquinone derivatives of the present invention.

Row | SMILES | Cellular growth rate (%)
1 | CN(C)CC(=O)Nc1ccc2c(c1)C(=O)c1cc(NC(=O)CN(C)C)ccc1C2=O [Compound 8, 2,7-Bis[2-(dimethylamino)acetamido]anthraquinone] | −6.39

system: BT-549; test: as above; format: cell-based; settings: BT-549, breast cancer; 1.0×10^−5 M
Text: as §1

Row | SMILES | Cellular growth rate (%)
2 | CN(C)CC(=O)Nc1ccc2c(c1)C(=O)c1cc(NC(=O)CN(C)C)ccc1C2=O [Compound 8, 2,7-Bis[2-(dimethylamino)acetamido]anthraquinone] | 85.36

system: CAK1-1; test: as above; format: cell-based; settings: CAK1-1, renal cancer; 1.0×10^−5 M
Text: as §1

Row | SMILES | Cellular growth rate (%)
3 | CN(C)CC(=O)Nc1ccc2c(c1)C(=O)c1cc(NC(=O)CN(C)C)ccc1C2=O [Compound 8, 2,7-Bis[2-(dimethylamino)acetamido]anthraquinone] | 59.26

system: DU-145; test: as above; format: cell-based; settings: DU-145, prostate cancer; 1.0×10^−5 M
Text: as §1

Row | SMILES | Cellular growth rate (%)
4 | CN(C)CC(=O)Nc1ccc2c(c1)C(=O)c1cc(NC(=O)CN(C)C)ccc1C2=O [Compound 8, 2,7-Bis[2-(dimethylamino)acetamido]anthraquinone] | 78.68

system: HCC-2998; test: as above; format: cell-based; settings: HCC-2998, colon cancer; 1.0×10^−5 M
Text: as §1

Row | SMILES | Cellular growth rate (%)
5 | CN(C)CC(=O)Nc1ccc2c(c1)C(=O)c1cc(NC(=O)CN(C)C)ccc1C2=O [Compound 8, 2,7-Bis[2-(dimethylamino)acetamido]anthraquinone] | −73.97

system: HCT-116; test: as above; format: cell-based; settings: HCT-116, colon cancer; 1.0×10^−5 M
Text: as §1

Row | SMILES | Cellular growth rate (%)
6 | CN(C)CC(=O)Nc1ccc2c(c1)C(=O)c1cc(NC(=O)CN(C)C)ccc1C2=O [Compound 8, 2,7-Bis[2-(dimethylamino)acetamido]anthraquinone] | 19.07

system: HCT-15; test: as above; format: cell-based; settings: HCT-15, colon cancer; 1.0×10^−5 M
Text: as §1

Row | SMILES | Cellular growth rate (%)
7 | CN(C)CC(=O)Nc1ccc2c(c1)C(=O)c1cc(NC(=O)CN(C)C)ccc1C2=O [Compound 8, 2,7-Bis[2-(dimethylamino)acetamido]anthraquinone] | 16.26

system: HL-60(TB); test: as above; format: cell-based; settings: leukemia, 1.0×10^−5 M
Text: as §1

Row | SMILES | Cellular growth rate (%)
8 | CN(C)CC(=O)Nc1ccc2c(c1)C(=O)c1cc(NC(=O)CN(C)C)ccc1C2=O [Compound 8, 2,7-Bis[2-(dimethylamino)acetamido]anthraquinone] | −64.97

system: HOP-62; test: as above; format: cell-based; settings: HOP-62, non-small cell lung cancer; 1.0×10^−5 M
Text: as §1

Row | SMILES | Cellular growth rate (%)
9 | CN(C)CC(=O)Nc1ccc2c(c1)C(=O)c1cc(NC(=O)CN(C)C)ccc1C2=O [Compound 8, 2,7-Bis[2-(dimethylamino)acetamido]anthraquinone] | 28.97

system: HOP-92; test: as above; format: cell-based; settings: HOP-92, non-small cell lung cancer; 1.0×10^−5 M
Text: as §1

Row | SMILES | Cellular growth rate (%)
10 | CN(C)CC(=O)Nc1ccc2c(c1)C(=O)c1cc(NC(=O)CN(C)C)ccc1C2=O [Compound 8, 2,7-Bis[2-(dimethylamino)acetamido]anthraquinone] | 56.14

system: HS 578T; test: as above; format: cell-based; settings: breast cancer, 1.0×10^−5 M
Text: as §1

Row | SMILES | Cellular growth rate (%)
11 | CN(C)CC(=O)Nc1ccc2c(c1)C(=O)c1cc(NC(=O)CN(C)C)ccc1C2=O [Compound 8, 2,7-Bis[2-(dimethylamino)acetamido]anthraquinone] | −6.11

system: HT29; test: as above; format: cell-based; settings: HT29, colon cancer; 1.0×10^−5 M
Text: as §1

Row | SMILES | Cellular growth rate (%)
12 | CN(C)CC(=O)Nc1ccc2c(c1)C(=O)c1cc(NC(=O)CN(C)C)ccc1C2=O [Compound 8, 2,7-Bis[2-(dimethylamino)acetamido]anthraquinone] | 11.73

system: K-562; test: as above; format: cell-based; settings: K-562, leukemia; 1.0×10^−5 M
Text: as §1

Row | SMILES | Cellular growth rate (%)
13 | CN(C)CC(=O)Nc1ccc2c(c1)C(=O)c1cc(NC(=O)CN(C)C)ccc1C2=O [Compound 8, 2,7-Bis[2-(dimethylamino)acetamido]anthraquinone] | 34.91

system: KM12; test: as above; format: cell-based; settings: KM12, colon cancer; 1.0×10^−5 M
Text: as §1

Row | SMILES | Cellular growth rate (%)
14 | CN(C)CC(=O)Nc1ccc2c(c1)C(=O)c1cc(NC(=O)CN(C)C)ccc1C2=O [Compound 8, 2,7-Bis[2-(dimethylamino)acetamido]anthraquinone] | 66.95

system: M14; test: as above; format: cell-based; settings: M14, melanoma; 1.0×10^−5 M
Text: as §1

Row | SMILES | Cellular growth rate (%)
15 | CN(C)CC(=O)Nc1ccc2c(c1)C(=O)c1cc(NC(=O)CN(C)C)ccc1C2=O [Compound 8, 2,7-Bis[2-(dimethylamino)acetamido]anthraquinone] | 75.04

system: MALME-3M; test: as above; format: cell-based; settings: melanoma, 1.0×10^−5 M
Text: as §1

Row | SMILES | Cellular growth rate (%)
16 | CN(C)CC(=O)Nc1ccc2c(c1)C(=O)c1cc(NC(=O)CN(C)C)ccc1C2=O [Compound 8, 2,7-Bis[2-(dimethylamino)acetamido]anthraquinone] | 96.21

system: MDA-MB-231/ATCC; test: as above; format: cell-based; settings: breast cancer, 1.0×10^−5 M
Text: as §1

Row | SMILES | Cellular growth rate (%)
17 | CN(C)CC(=O)Nc1ccc2c(c1)C(=O)c1cc(NC(=O)CN(C)C)ccc1C2=O [Compound 8, 2,7-Bis[2-(dimethylamino)acetamido]anthraquinone] | 4.49

system: MDA-MB-435; test: as above; format: cell-based; settings: MDA-MB-435, breast cancer; 1.0×10^−5 M
Text: as §1

Row | SMILES | Cellular growth rate (%)
18 | CN(C)CC(=O)Nc1ccc2c(c1)C(=O)c1cc(NC(=O)CN(C)C)ccc1C2=O [Compound 8, 2,7-Bis[2-(dimethylamino)acetamido]anthraquinone] | 68.36

system: MOLT-4; test: as above; format: cell-based; settings: MOLT-4, leukemia; 1.0×10^−5 M
Text: as §1

Row | SMILES | Cellular growth rate (%)
19 | CN(C)CC(=O)Nc1ccc2c(c1)C(=O)c1cc(NC(=O)CN(C)C)ccc1C2=O [Compound 8, 2,7-Bis[2-(dimethylamino)acetamido]anthraquinone] | 29.12

system: NCI-H23; test: as above; format: cell-based; settings: NCI-H23, non-small cell lung cancer; 1.0×10^−5 M
Text: as §1

Row | SMILES | Cellular growth rate (%)
20 | CN(C)CC(=O)Nc1ccc2c(c1)C(=O)c1cc(NC(=O)CN(C)C)ccc1C2=O [Compound 8, 2,7-Bis[2-(dimethylamino)acetamido]anthraquinone] | 51.78

system: NCl-H460; test: as above; format: cell-based; settings: NCl-H460, non-small cell lung cancer; 1.0×10^−5 M
Text: as §1

Row | SMILES | Cellular growth rate (%)
21 | CN(C)CC(=O)Nc1ccc2c(c1)C(=O)c1cc(NC(=O)CN(C)C)ccc1C2=O [Compound 8, 2,7-Bis[2-(dimethylamino)acetamido]anthraquinone] | 5.01

system: NCl-H522; test: as above; format: cell-based; settings: NCl-H522, non-small cell lung cancer; 1.0×10^−5 M
Text: as §1

Row | SMILES | Cellular growth rate (%)
22 | CN(C)CC(=O)Nc1ccc2c(c1)C(=O)c1cc(NC(=O)CN(C)C)ccc1C2=O [Compound 8, 2,7-Bis[2-(dimethylamino)acetamido]anthraquinone] | 61.82

system: OVCAR-8; test: as above; format: cell-based; settings: OVCAR-8, ovarian cancer; 1.0×10^−5 M
Text: as §1

Row | SMILES | Cellular growth rate (%)
23 | CN(C)CC(=O)Nc1ccc2c(c1)C(=O)c1cc(NC(=O)CN(C)C)ccc1C2=O [Compound 8, 2,7-Bis[2-(dimethylamino)acetamido]anthraquinone] | 32.31

system: RPMI-8226; test: as above; format: cell-based; settings: RPMI-8226, leukemia; 1.0×10^−5 M
Text: as §1

Row | SMILES | Cellular growth rate (%)
24 | CN(C)CC(=O)Nc1ccc2c(c1)C(=O)c1cc(NC(=O)CN(C)C)ccc1C2=O [Compound 8, 2,7-Bis[2-(dimethylamino)acetamido]anthraquinone] | 34.97

system: SF-539; test: as above; format: cell-based; settings: SF-539, CNS cancer; 1.0×10^−5 M
Text: as §1

Row | SMILES | Cellular growth rate (%)
25 | CN(C)CC(=O)Nc1ccc2c(c1)C(=O)c1cc(NC(=O)CN(C)C)ccc1C2=O [Compound 8, 2,7-Bis[2-(dimethylamino)acetamido]anthraquinone] | −3.72

system: SK-MEL-28; test: as above; format: cell-based; settings: SK-MEL-28, melanoma; 1.0×10^−5 M
Text: as §1

Row | SMILES | Cellular growth rate (%)
26 | CN(C)CC(=O)Nc1ccc2c(c1)C(=O)c1cc(NC(=O)CN(C)C)ccc1C2=O [Compound 8, 2,7-Bis[2-(dimethylamino)acetamido]anthraquinone] | 32.11

system: SK-MEL-2; test: as above; format: cell-based; settings: SK-MEL-2, melanoma; 1.0×10^−5 M
Text: as §1

Row | SMILES | Cellular growth rate (%)
27 | CN(C)CC(=O)Nc1ccc2c(c1)C(=O)c1cc(NC(=O)CN(C)C)ccc1C2=O [Compound 8, 2,7-Bis[2-(dimethylamino)acetamido]anthraquinone] | −30.35

system: SK-MEL-5; test: as above; format: cell-based; settings: SK-MEL-5, melanoma; 1.0×10^−5 M
Text: as §1

Row | SMILES | Cellular growth rate (%)
28 | CN(C)CC(=O)Nc1ccc2c(c1)C(=O)c1cc(NC(=O)CN(C)C)ccc1C2=O [Compound 8, 2,7-Bis[2-(dimethylamino)acetamido]anthraquinone] | 82.59

system: SK-OV-3; test: as above; format: cell-based; settings: SK-OV-3, ovarian cancer; 1.0×10^−5 M
Text: as §1

Row | SMILES | Cellular growth rate (%)
29 | CN(C)CC(=O)Nc1ccc2c(c1)C(=O)c1cc(NC(=O)CN(C)C)ccc1C2=O [Compound 8, 2,7-Bis[2-(dimethylamino)acetamido]anthraquinone] | 70.26

system: SN12C; test: as above; format: cell-based; settings: renal cancer, 1.0×10^−5 M
Text: as §1

Row | SMILES | Cellular growth rate (%)
30 | CN(C)CC(=O)Nc1ccc2c(c1)C(=O)c1cc(NC(=O)CN(C)C)ccc1C2=O [Compound 8, 2,7-Bis[2-(dimethylamino)acetamido]anthraquinone] | 27.99

system: SNB-19; test: as above; format: cell-based; settings: SNB-19, CNS cancer; 1.0×10^−5 M
Text: as §1

Row | SMILES | Cellular growth rate (%)
31 | CN(C)CC(=O)Nc1ccc2c(c1)C(=O)c1cc(NC(=O)CN(C)C)ccc1C2=O [Compound 8, 2,7-Bis[2-(dimethylamino)acetamido]anthraquinone] | 79.57

system: SNB-75; test: as above; format: cell-based; settings: SNB-75, CNS cancer; 1.0×10^−5 M
Text: as §1

Row | SMILES | Cellular growth rate (%)
32 | CN(C)CC(=O)Nc1ccc2c(c1)C(=O)c1cc(NC(=O)CN(C)C)ccc1C2=O [Compound 8, 2,7-Bis[2-(dimethylamino)acetamido]anthraquinone] | 76.12

system: T-47D; test: as above; format: cell-based; settings: breast cancer, 1.0×10^−5 M
Text: as §1

Row | SMILES | Cellular growth rate (%)
33 | CN(C)CC(=O)Nc1ccc2c(c1)C(=O)c1cc(NC(=O)CN(C)C)ccc1C2=O [Compound 8, 2,7-Bis[2-(dimethylamino)acetamido]anthraquinone] | 24.62

system: U251; test: as above; format: cell-based; settings: U251, CNS cancer; 1.0×10^−5 M
Text: as §1

Row | SMILES | Cellular growth rate (%)
34 | CN(C)CC(=O)Nc1ccc2c(c1)C(=O)c1cc(NC(=O)CN(C)C)ccc1C2=O [Compound 8, 2,7-Bis[2-(dimethylamino)acetamido]anthraquinone] | 16.26

system: UACC-257; test: as above; format: cell-based; settings: UACC-257, melanoma; 1.0×10^−5 M
Text: as §1

Row | SMILES | Cellular growth rate (%)
35 | CN(C)CC(=O)Nc1ccc2c(c1)C(=O)c1cc(NC(=O)CN(C)C)ccc1C2=O [Compound 8, 2,7-Bis[2-(dimethylamino)acetamido]anthraquinone] | −1.84

system: UACC-62; test: as above; format: cell-based; settings: UACC-62, melanoma; 1.0×10^−5 M
Text: as §1

Row | SMILES | Cellular growth rate (%)
36 | CN(C)CC(=O)Nc1ccc2c(c1)C(=O)c1cc(NC(=O)CN(C)C)ccc1C2=O [Compound 8, 2,7-Bis[2-(dimethylamino)acetamido]anthraquinone] | 22.31
